In patent US20240300980A1, “HETEROCYCLIC COMPOUNDS AS KRAS INHIBITOR, AND PREPARATION THEREFOR AND USE THEREOF IN TREATMENT” (SHANGHAI KECHOW PHARMA, INC., priority 2021, published 2024):

Tested on: AGS cells (KRAS^G12D)
Assay: Detection of cell proliferation in vitro by MTT/MTS method (cell activity experiment)
Type: cell-based
Conditions: Homo sapiens, AGS, 72 h, AGS cells; MTT/MTS; 3 days of drug treatment; read-out: AGS IC50
How it was run: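 KRAS G12D AGS cells seeded at 1000 per well, compound added 24 h later, 0.5% final DMSO. Viability read after 3 days of treatment by MTT (solubilised in DMSO) or MTS, 4 h, absorbance 490 nm. IC50 from dose–response curves versus DMSO control.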

Row | SMILES | IC50 [nM]
1 | C#Cc1c(F)ccc2cc(O)cc(-c3ccc4c(C5C[C@H]6CC[C@@H](C5)N6)nc(OC[C@@]56CCCN5C[C@H](F)C6)nc4c3F)c12 (stereo partly drawn) [Example 137, 4-(4-((1R,5S)-8-azabicyclo[3.2.1]octan-3-yl)-8-fluoro-2-(((2R,7aS)-2-fluorotetrahydro-1H-pyrrolizin-7a(5H)-yl)methoxy)quinazolin-7-yl)-5-ethynyl-6-fluoronaphthalen-2-ol] | > 2500
2 | CSC1CCc2cc(O)cc(-c3ncc4c(N5C[C@H]6CC[C@@H](C5)N6)nc(OC[C@@]56CCCN5C[C@H](F)C6)nc4c3F)c21 (stereo partly drawn) [Example 354, 7-(4-((1R,5S)-3,8-diazabicyclo[3.2.1]octan-3-yl)-8-fluoro-2-(((2R,7aS)-2-fluorotetrahydro-1H-pyrrolizin-7a(5H)-yl)methoxy)pyrido[4,3-d]pyrimidin-7-yl)-1-(methylthio)-2,3-dihydro-1H-inden-5-ol] | 25
3 | CN1CCc2cc(O)cc(-c3ncc4c(N5C[C@H]6CC[C@@H](C5)N6)nc(OC[C@@]56CCCN5C[C@H](F)C6)nc4c3F)c2C1=O [Example 273, 8-(4-((1R,5S)-3,8-diazabicyclo[3.2.1]octan-3-yl)-8-fluoro-2-(((2R,7aS)-2-fluorotetrahydro-1H-pyrrolizin-7a(5H)-yl)methoxy)pyrido[4,3-d]pyrimidin-7-yl)-6-hydroxy-2-methyl-3,4-dihydroisoquinolin-1(2H)-one] | > 2500
4 | CC1OCCc2cc(O)cc(-c3c4c(c5c(N6C[C@H]7CC[C@@H](C6)N7)nc(OC[C@@]67CCCN6C[C@H](F)C7)nc5c3F)OCO4)c21 (stereo partly drawn) [Example 392, 8-(9-((1R,5S)-3,8-diazabicyclo[3.2.1]octan-3-yl)-5-fluoro-7-(((2R,7aS)-2-fluorotetrahydro-1H-pyrrolizin-7a(5H)-yl)methoxy)-[1,3]dioxolo[4,5-f]quinazolin-4-yl)-1-methylisochroman-6-ol] | 110
5 | C#Cc1c(F)ccc2cc(O)cc(N3CCc4c(nc(OC[C@@]56CCCN5C[C@H](F)C6)nc4N4C[C@H]5CC[C@@H](C4)N5)C3)c12 [Example 202, 4-(4-((1R,5S)-3,8-diazabicyclo[3.2.1]octan-3-yl)-2-(((2R,7aS)-2-fluorotetrahydro-1H-pyrrolizin-7a(5H)-yl)methoxy)-5,8-dihydropyrido[3,4-d]pyrimidin-7(6H)-yl)-5-ethynyl-6-fluoronaphthalen-2-ol] | 7.5
6 | CSc1c(F)ccc2cc(O)cc(-c3ncc4c(N5C[C@H]6CC[C@@H](C5)N6)nc(OC[C@@]56CCCN5C[C@H](F)C6)nc4c3F)c12 [Example 360, 4-(4-((1R,5S)-3,8-diazabicyclo[3.2.1]octan-3-yl)-8-fluoro-2-(((2R,7aS)-2-fluorotetrahydro-1H-pyrrolizin-7a(5H)-yl)methoxy)pyrido[4,3-d]pyrimidin-7-yl)-6-fluoro-5-(methylthio)naphthalen-2-ol] | 10
7 | Oc1cc(-c2c3c(c4c(N5C[C@H]6CC[C@@H](C5)N6)nc(OC[C@@]56CCCN5C[C@H](F)C6)nc4c2F)CCC3)c2c(F)c(F)ccc2c1 [Example 380, 4-(1-((1R,5S)-3,8-diazabicyclo[3.2.1]octan-3-yl)-5-fluoro-3-(((2R,7aS)-2-fluorotetrahydro-1H-pyrrolizin-7a(5H)-yl)methoxy)-8,9-dihydro-7H-cyclopenta[f]quinazolin-6-yl)-5,6-difluoronaphthalen-2-ol] | 95
8 | Oc1cc2c(c(-c3ccc4c(N5C[C@H]6CC[C@@H](C5)N6)nc(OC[C@@]56CCCN5C[C@H](F)C6)nc4c3F)c1)C=CCC2 [Example 305, 4-(4-((1R,5S)-3,8-diazabicyclo[3.2.1]octan-3-yl)-8-fluoro-2-(((2R,7aS)-2-fluorotetrahydro-1H-pyrrolizin-7a(5H)-yl)methoxy)quinazolin-7-yl)-7,8-dihydronaphthalen-2-ol] | 102
9 | C#Cc1c(F)ccc2cc(O)cc(-c3c4c(c5c(N6C[C@H]7CC[C@@H](C6)N7)nc(OC[C@@]67CCCN6C[C@H](F)C7)nc5c3F)OCO4)c12 [Example 393, 4-(9-((1R,5S)-3,8-diazabicyclo[3.2.1]octan-3-yl)-5-fluoro-7-(((2R,7aS)-2-fluorotetrahydro-1H-pyrrolizin-7a(5H)-yl)methoxy)-[1,3]dioxolo[4,5-f]quinazolin-4-yl)-5-ethynyl-6-fluoronaphthalen-2-ol] | 70
10 | Oc1cc(-c2ccc3c(N4C[C@H]5CC[C@@H](C4)N5)nc(OC[C@@]45CCCN4C[C@H](F)C5)nc3n2)c2c(F)c(F)ccc2c1 [Example 142, 4-(4-((1R,5S)-3,8-diazabicyclo[3.2.1]octan-3-yl)-2-(((2R,7aS)-2-fluorotetrahydro-1H-pyrrolizin-7a(5H)-yl)methoxy)pyrido[2,3-d]pyrimidin-7-yl)-5,6-difluoronaphthalen-2-ol] | > 2500
11 | CCC1CCCc2cc(O)cc(-c3ncc4c(NCC5(N(C)C)CCC5)nc(OC[C@@]56CCCN5C[C@H](F)C6)nc4c3F)c21 (stereo partly drawn) [Example 422, 4-(4-(((1-(dimethylamino)cyclobutyl)methyl)amino)-8-fluoro-2-(((2R,7aS)-2-fluorotetrahydro-1H-pyrrolizin-7a(5H)-yl)methoxy)pyrido[4,3-d]pyrimidin-7-yl)-5-ethyl-5,6,7,8-tetrahydronaphthalen-2-ol] | 35
12 | C#Cc1c(F)ccc2cc(O)cc(-c3ncc4c(N5CC6(CNC6)C5)nc(OC[C@@]56CCCN5C[C@H](F)C6)nc4c3F)c12 [Example 70, 5-ethynyl-6-fluoro-4-(8-fluoro-2-(((2R, 7aS)-2-fluorotetrahydro-1H-pyrrolizin-7a(5H)-yl)methoxy)-4-(2,6-diazaspiro[3.3]heptan-2-yl)pyrido[4,3-d]pyrimidin-7-yl)naphthalen-2-ol] | > 2500
13 | CCc1c(F)ccc2cc(O)cc(-c3ncc4c(N5C[C@H]6CC[C@@H](C5)N6)nc(OCC5(CN6CCCC6)CC5)nc4c3F)c12 [Example 3, 4-(4-((1R,5S)-3,8-diazabicyclo[3.2.1]octan-3-yl)-8-fluoro-2-((1-(pyrrolidin-1-ylmethyl)cyclopropyl)methoxy)pyrido[4,3-d]pyrimidin-7-yl)-5-ethyl-6-fluoronaphthalen-2-ol] | 4.5
14 | CCc1cccc2cc(O)cc(-c3ncc4c(N5C[C@H]6CC[C@@H](C5)O6)nc(OC[C@@]56CCCN5C[C@H](F)C6)nc4c3F)c12 [Example 14, 4-(4-((1R,5S)-8-oxa-3-azabicyclo[3.2.1]octan-3-yl)-8-fluoro-2-(((2R,7aS)-2-fluorotetrahydro-1H-pyrrolizin-7a(5H)-yl)methoxy)pyrido[4,3-d]pyrimidin-7-yl)-5-ethylnaphthalen-2-ol] | 330
15 | C#Cc1c(F)ccc2cc(O)cc(-c3ncc4c(-c5cnn(C(=O)CO)c5)nc(OC[C@@]56CCCN5C[C@H](F)C6)nc4c3F)c12 [Example 87, 1-(4-(7-(8-ethynyl-7-fluoro-3-hydroxynaphthalen-1-yl)-8-fluoro-2-(((2R, 7aS)-2-fluorotetrahydro-1H-pyrrolizin-7a(5H)-yl)methoxy)pyrido[4,3-d]pyrimidin-4-yl)-1H-pyrazol-1-yl)-2-hydroxyethan-1-one] | > 10000
16 | C#Cc1cccc2cc(O)cc(-c3ccc4c(N5C[C@H]6CC[C@@H](C5)N6)nc(OC[C@@]56CCCN5C[C@H](F)C6)nc4n3)c12 [Example 144, 4-(4-((1R,5S)-3,8-diazabicyclo[3.2.1]octan-3-yl)-2-(((2R,7aS)-2-fluorotetrahydro-1H-pyrrolizin-7a(5H)-yl)methoxy)pyrido[2,3-d]pyrimidin-7-yl)-5-ethynylnaphthalen-2-ol] | > 2500
17 | Oc1cc2c(c(-c3ccc4c(N5C[C@H]6CC[C@@H](C5)N6)nc(OC[C@@]56CCCN5C[C@H](F)C6)nc4c3F)c1)C1CC1C2 (stereo partly drawn) [Example 156, 2-(4-((1R,5S)-3,8-diazabicyclo[3.2.1]octan-3-yl)-8-fluoro-2-(((2R,7aS)-2-fluorotetrahydro-1H-pyrrolizin-7a(5H)-yl)methoxy)quinazolin-7-yl)-1,1a,6,6a-tetrahydrocyclopropa [a]inden-4-ol] | 40
18 | C#Cc1c(F)ccc2cc(O)cc(-c3ccc4c(N5CC6CCCC(C5)N6)nc(OC[C@@]56CCCN5C[C@H](F)C6)nc4c3F)c12 [Example 105, 4-(4-(3,9-diazabicyclo [3.3.1]nonan-3-yl)-8-fluoro-2-(((2R,7aS)-2-fluorotetrahydro-1H-pyrrolizin-7a(5H)-yl)methoxy)quinazolin-7-yl)-5-ethynyl-6-fluoronaphthalen-2-ol] | 80
19 | CC1CCCc2cc(O)cc(-c3c(F)c4nc(OC[C@@]56CCCN5C[C@H](F)C6)nc(N5C[C@H]6CC[C@@H](C5)N6)c4c4nccn34)c21 (stereo partly drawn) [Example 414, 4-(10-((1R,5S)-3,8-diazabicyclo[3.2.1]octan-3-yl)-6-fluoro-8-(((2R,7aS)-2-fluorotetrahydro-1H-pyrrolizin-7a(5H)-yl)methoxy)imidazo[1′,2′:1,2]pyrido[4,3-d]pyrimidin-5-yl)-5-methyl-5,6,7,8-tetrahydronaphthalen-2-ol] | 45
20 | CC1CCCc2cc(O)cc(-c3ncc4c(NCC5(N(C)C)CCC5)nc(OC[C@@]56CCCN5C[C@H](F)C6)nc4c3F)c21 (stereo partly drawn) [Example 421, 4-(4-(((1-(dimethylamino)cyclobutyl)methyl)amino)-8-fluoro-2-(((2R,7aS)-2-fluorotetrahydro-1H-pyrrolizin-7a(5H)-yl)methoxy)pyrido[4,3-d]pyrimidin-7-yl)-5-methyl-5,6,7,8-tetrahydronaphthalen-2-ol] | 26
21 | C#Cc1c(F)ccc2cc(O)cc(-c3ccc4c(N5CC(C)(NC)C5)nc(OC[C@@]56CCCN5C[C@H](F)C6)nc4c3F)c12 [Example 218, 5-ethynyl-6-fluoro-4-(8-fluoro-2-(((2R,7aS)-2-fluorotetrahydro-1H-pyrrolizin-7a(5H)-yl)methoxy)-4-(3-methyl-3-(methylamino)azetidin-1-yl)quinazolin-7-yl)naphthalen-2-ol] | 980
22 | C#Cc1c(F)ccc2cc(O)cc(-c3ncc4c(N5CCC6(CCCS6)CC5)nc(OC[C@@]56CCCN5C[C@H](F)C6)nc4c3F)c12 [Example 49, 5-ethynyl-6-fluoro-4-(8-fluoro-2-(((2R, 7aS)-2-fluorotetrahydro-1H-pyrrolizin-7a(5H)-yl)methoxy)-4-(1-thia-8-azaspiro[4.5]decan-8-yl)pyrido[4,3-d]pyrimidin-7-yl)naphthalen-2-ol] | > 10000
